Experimental findings from PMC9837035 (Nature Communications, 2023) are described below.

“And” between values parts separate entries of the source, which are not always exact repeats. Identical values can stand only once.

One series addresses T1, PRDM9 (Homo sapiens, UniProt Q9NQV7).
T1 construct: purchased Reaction Biology
Kind of series: Radioisotope-based methyltransferase assay (selectivity). In kind it is biochemical.

In a further series the target is T2, ASH1L (Homo sapiens, UniProt Q9NR48).
T2 construct: purchased Reaction Biology
The description is as above. Conditions: IC50, ASH1L. Type of series: biochemical.

In another series the target is T3, NSD3 (Homo sapiens, UniProt Q9BZ95).
T3 construct: purchased Reaction Biology
T3 sequence (Q9BZ95 1-1437): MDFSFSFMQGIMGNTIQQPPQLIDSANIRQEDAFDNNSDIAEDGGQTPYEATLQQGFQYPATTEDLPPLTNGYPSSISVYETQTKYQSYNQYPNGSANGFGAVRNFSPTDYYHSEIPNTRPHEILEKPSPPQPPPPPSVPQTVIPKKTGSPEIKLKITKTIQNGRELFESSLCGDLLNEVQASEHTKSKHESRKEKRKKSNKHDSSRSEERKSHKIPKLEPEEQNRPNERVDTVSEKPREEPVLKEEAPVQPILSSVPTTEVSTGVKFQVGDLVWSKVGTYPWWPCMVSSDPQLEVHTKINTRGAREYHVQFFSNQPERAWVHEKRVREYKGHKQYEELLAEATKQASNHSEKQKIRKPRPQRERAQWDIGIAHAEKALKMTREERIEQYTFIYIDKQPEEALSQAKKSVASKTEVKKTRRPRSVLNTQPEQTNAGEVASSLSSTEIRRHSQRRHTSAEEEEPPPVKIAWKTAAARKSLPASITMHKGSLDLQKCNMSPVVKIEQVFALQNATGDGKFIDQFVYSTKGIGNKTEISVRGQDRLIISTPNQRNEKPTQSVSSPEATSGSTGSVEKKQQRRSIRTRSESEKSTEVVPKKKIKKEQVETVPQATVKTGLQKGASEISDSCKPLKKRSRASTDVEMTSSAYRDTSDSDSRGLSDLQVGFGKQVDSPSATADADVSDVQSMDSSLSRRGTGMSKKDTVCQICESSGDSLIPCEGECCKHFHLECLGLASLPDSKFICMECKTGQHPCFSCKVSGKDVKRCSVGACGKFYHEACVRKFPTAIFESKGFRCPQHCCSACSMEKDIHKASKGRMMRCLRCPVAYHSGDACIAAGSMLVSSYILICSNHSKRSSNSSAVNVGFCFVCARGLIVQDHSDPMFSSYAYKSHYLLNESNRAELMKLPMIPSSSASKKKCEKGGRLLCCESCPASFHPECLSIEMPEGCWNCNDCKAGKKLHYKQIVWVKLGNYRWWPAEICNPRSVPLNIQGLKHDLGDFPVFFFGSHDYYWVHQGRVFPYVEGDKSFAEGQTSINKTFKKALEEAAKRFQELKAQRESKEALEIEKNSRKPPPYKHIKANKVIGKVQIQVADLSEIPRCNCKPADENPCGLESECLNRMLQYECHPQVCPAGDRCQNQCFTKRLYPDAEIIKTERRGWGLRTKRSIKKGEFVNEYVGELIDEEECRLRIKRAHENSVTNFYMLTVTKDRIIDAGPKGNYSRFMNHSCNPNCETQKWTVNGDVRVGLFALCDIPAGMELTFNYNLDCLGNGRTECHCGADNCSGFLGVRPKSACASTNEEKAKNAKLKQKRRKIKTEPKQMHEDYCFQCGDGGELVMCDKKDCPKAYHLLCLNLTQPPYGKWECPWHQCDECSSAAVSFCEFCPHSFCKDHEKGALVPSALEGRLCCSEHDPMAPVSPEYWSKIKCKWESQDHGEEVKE
The series is described as above. In kind it is biochemical.

In series [1] the test system is BGLT3 RNA in HUDEP-2 cells. The series is described as follows: RT-qPCR of BGLT3 in HUDEP-2 cells. In kind it is cell-based, human. Conditions: for BGLT3 expression in HUDEP-2 cells: relative to DMSO = 1, replicate values. Here is the method: (§1) Total cellular RNA was prepared using the Tissue Total RNA Mini Kit (FAVORGEN), and cDNA was synthesized using ReverTra Ace Master Mix (TOYOBO). Expression of target genes was analyzed using THUNDERBIRD SYBR qPCR Mix (TOYOBO) on a CFX Connect Real Time System (Bio-Rad). The qPCR data were acquired on CFX Maestro (Bio-Rad). Primers are listed in Supplementary Table 10. GAPDH was used as a reference. Primers were purchased from INTEGRATED DNA TECHNOLOGIES or FASMAC.
On the technique in general: In qPCR the cycle at which signal appears reflects the starting amount.

For a further series, the system named is HUDEP-2 cells. The series is described as follows: Cell viability assay (WST-8), HUDEP-2. Type of series: cell-based, human. Here is the method:
A WST-8 (2-(2-methoxy-4-nitrophenyl)-3-(4-nitrophenyl)-5-(2,4-disulfophenyl)-2H-tetrazolium) assay using a Cell Counting Kit-8 (DOJINDO) was performed to measure cell viability using an EnSpire microplate reader (PerkinElmer).
In general terms: Tetrazolium assays rely on reduction of a dye to a coloured formazan, in cell work by metabolically active cells.

A further series relates to H3K9me2 in HUDEP-2 cells. Kind of series: Western blotting of H3K9me2 in HUDEP-2 cells. Type of series: cell-based, human. Conditions: HUDEP-2, 4 days. On the procedure: Preparation of cell lysates and western blotting were performed as described previously. Protein from cells lysates in lysis buffer (50 mM Tris-HCl (pH 7.5), 150 mM NaCl, 5 mM EDTA, 0.1% NP-40, 1 mM dithiothreitol) were separated by sodium dodecyl sulfate–polyacrylamide gel electrophoresis (SDS-PAGE) and transferred to a polyvinylidene difluoride (PVDF) membrane (Millipore) by electroblotting. The membranes incubated with primary antibodies overnight at 4 °C and secondary antibodies for 1 h at room temperature. The immune complexes were detected with the Immobilon Western Chemiluminescent HRP Substrate (Millipore). Luminescence was analyzed on a FUSION SOLO S (Vilber). Western blot bands were visualized using Evolution Capt software (M&S Instruments Inc.). Primary antibodies used were anti-G9a (1:1000, CST, #3306), anti–α-tubulin (1:5000, Abcam, ab18251), anti-H3K9me2 (1:3000, Abcam, ab1220), anti-H3 (1:5000, Abcam, ab1791), anti-H3K27me3 (1:3000, Sigma, 07-449), anti-GLP (1:1000, CST, #35005), anti-FLAG (100 ng/ml, Fujifilm, 01422383), anti-His (1:5000, MBL, PM032), anti-BCL11A (1:1000, abcam, ab19487), anti-ZBTB7A (1:1000, CST, #50565), anti-CHD3 (1:1000, Novus Biologicals, NB100-60412), and anti-CHD4 (1:1000, abcam, ab240640). Uncropped scans of all of the blots are available in Source Data file.
In general terms: In western blotting, separated proteins are transferred to a membrane and probed.

The test system of series [2] is β- and γ-globin genes in HUDEP-2 cells. The series is described as follows: RT-qPCR of β- and γ-globin in HUDEP-2 cells. In kind it is cell-based, human. Conditions: for β-globin expression in HUDEP-2 cells / γ-globin expression in HUDEP-2 cells: relative to DMSO = 1, replicate values. Here is the method: as §1

T1 sequence (Q9NQV7 whole entry): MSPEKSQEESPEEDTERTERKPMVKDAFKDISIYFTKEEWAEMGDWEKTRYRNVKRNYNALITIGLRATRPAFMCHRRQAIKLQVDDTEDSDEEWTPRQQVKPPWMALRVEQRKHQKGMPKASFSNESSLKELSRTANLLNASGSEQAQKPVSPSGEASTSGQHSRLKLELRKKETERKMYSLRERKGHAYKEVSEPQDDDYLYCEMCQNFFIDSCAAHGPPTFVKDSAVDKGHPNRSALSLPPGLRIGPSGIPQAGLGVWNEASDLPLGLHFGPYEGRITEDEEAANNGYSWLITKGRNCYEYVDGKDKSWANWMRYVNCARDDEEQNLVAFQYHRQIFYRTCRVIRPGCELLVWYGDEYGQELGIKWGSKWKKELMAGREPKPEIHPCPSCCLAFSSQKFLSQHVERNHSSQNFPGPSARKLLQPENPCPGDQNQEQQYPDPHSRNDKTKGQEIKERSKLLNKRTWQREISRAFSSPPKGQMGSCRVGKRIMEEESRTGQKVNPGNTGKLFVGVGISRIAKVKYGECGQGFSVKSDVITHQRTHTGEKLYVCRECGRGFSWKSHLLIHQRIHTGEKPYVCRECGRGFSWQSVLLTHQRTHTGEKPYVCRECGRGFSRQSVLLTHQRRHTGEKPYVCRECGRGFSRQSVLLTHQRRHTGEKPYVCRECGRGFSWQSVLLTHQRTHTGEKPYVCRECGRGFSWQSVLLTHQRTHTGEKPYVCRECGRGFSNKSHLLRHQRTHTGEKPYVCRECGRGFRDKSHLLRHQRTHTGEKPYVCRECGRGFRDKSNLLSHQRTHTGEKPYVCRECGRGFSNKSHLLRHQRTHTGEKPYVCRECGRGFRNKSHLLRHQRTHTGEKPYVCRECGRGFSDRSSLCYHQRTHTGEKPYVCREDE

The term IC50 denotes the concentration that gives 50% inhibition. Low values mean greater potency, high ones weaker potency. With `CN1C(=O)[C@@]23C[C@]4([C@]56C[C@@]78SS[C@@](CO)(C(=O)N7[C@H]5Nc5ccccc56)N(C)C8=O)c5ccccc5N[C@@H]4N2C(=O)[C@]1(CO)SS3` [Chaetocin, reference compound], the IC50 turned out to be 13400 nM on PRDM9 (IC50, PRDM9, 1 μM SAM); 13400 nM on PRDM9 (IC50, PRDM9, RK-701 in duplicate); 93 nM against ASH1L (1 μM SAM); 92.8 nM on ASH1L (RK-701 in duplicate); 150 nM against NSD3 (IC50, NSD3, 1 μM SAM); 150 nM against NSD3 (IC50, NSD3, RK-701 in duplicate).

In the case of `COc1cc2c(NC3CCN(C)CC3)cc(-c3ccc(C)o3)nc2cc1OCCCN1CCCC1` [CM-272], the “BGLT3 expression in HUDEP-2 cells” value in series [1] (0.01 μM) is 1.264 and 1.918 and 0.9309; in series [1] (0.03 μM), 0.9121 and 1.179 and 0.9824; in series [1] (0.1 μM) it was 0.6878 and 0.8395 and 1.055; in series [1] (0.3 μM) it was 4.167 and 3.251 and 2.85; in series [1] (1 μM), 9.88 and 9.285 and 7.11. In series [1] (HUDEP-2), the BGLT3 expression result was “induced the expression of both BGLT3 and γ-globin”. For the same compound, the “cell viability in HUDEP-2 cells” value with HUDEP-2 cells (0.123457 μM, control (0 μM) = 100) is 108.704 and 95.321 and 98.9654. Also, in the series on HUDEP-2 cells (HUDEP-2, 3 days), the “cytotoxic effect on viability” value is listed as “severe cell toxicity”. For the same compound, the “cellular H3K9me2 levels” value in the series with H3K9me2 in HUDEP-2 cells is “reduction of H3K9me2 levels”. Also, the “β-globin expression in HUDEP-2 cells” value was 1.0071 and 1.036 and 1.465 in series [2] (0.01 μM); 0.9553 and 1.237 and 1.08 in series [2] (0.03 μM); 1.5931 and 1.663 and 1.768 in series [2] (0.1 μM); 1.078 and 1.725 and 1.22 in series [2] (0.3 μM); 1.093 and 1.321 and 1.148 in series [2] (1 μM). For the same compound, the “γ-globin expression in HUDEP-2 cells” value was 1.193 and 1.0465 and 1.534 in series [2] (0.01 μM); 1.464 and 1.528 and 1.418 in series [2] (0.03 μM); 5.304 and 3.7722 and 4.868 in series [2] (0.1 μM); 5.583 and 7.681 and 5.641 in series [2] (0.3 μM); 3.245 and 3.178 and 3.329 in series [2] (1 μM). Besides, the “γ-globin mRNA level” value in series [2] (HUDEP-2) is “induced the expression of both BGLT3 and γ-globin”.
